Reference: PMC5223195, “Novel long-chain compounds with both immunomodulatory and MenA inhibitory activities against Staphylococcus aureus and its biofilm” (Scientific Reports, 2017)
≈ marks a conversion by molar mass, not a printed value. Read-outs that look alike come from different tables or passages of the source.

Legend:
[1] = system: MRSA USA700; experiment: MIC against MRSA USA700; assay type: cell-based, Staphylococcus aureus; settings: for MIC: Staphylococcus aureus, read-out: MIC, Staphylococcus aureus isolate USA700
Method: (§1) 96-well plates were seeded with 5 × 10^5 CFU/mL in a volume of 100 μL of tryptic soy broth (TSB) per well for Staphylococcus aureus assays. Compounds were dissolved in DMSO and serially diluted as 1:2 dilutions to give the final concentration ranging from 0.25 to 128 μg/mL per well. […] Plates were incubated at 37 °C for 18–20 hours and MIC was determined by reading OD625. For M.avium and M.abscessus, 7H9 broth media was used for determination of MICs. The final concentration was 5 × 10^5 CFU/mL in each well. The plate was incubated at 37 °C for 7–8 days and MICs were determined using a Tecan microplate reader (OD625) and resazurin reduction assay.

[2] = system: MRSA USA200; experiment: MIC against MRSA USA200; assay type: cell-based, Staphylococcus aureus; settings: TSB, 37 °C, 18–20 hours; for MIC: Staphylococcus aureus, read-out: MIC, Staphylococcus aureus isolate USA200
Method: as §1

[3] = system: MRSA USA400; experiment: MIC against MRSA USA400; assay type: cell-based, Staphylococcus aureus; settings: for MIC: Staphylococcus aureus, read-out: MIC, Staphylococcus aureus isolate USA400
Method: as §1

[4] = system: MRSA USA800; experiment: MIC against MRSA USA800; assay type: cell-based, Staphylococcus aureus; settings: Staphylococcus aureus; TSB, 37 °C, 18–20 hours; read-out: MIC, Staphylococcus aureus isolate USA800
Method: as §1

[5] = system: Methicillin susceptible Staphylococcus aureus; experiment: MIC against MSSA; assay type: cell-based; settings: for MIC: MSSA
Method: as §1

[6] = system: Enterococcus faecalis; experiment: MIC against Enterococcus faecalis; assay type: cell-based; settings: read-out: MIC, EF
[7] = system: MRSA USA100; experiment: MIC against MRSA USA100; assay type: cell-based, Staphylococcus aureus; settings: Staphylococcus aureus, read-out: MIC, Staphylococcus aureus isolate USA100
Method: as §1

[8] = system: MRSA (USA200); experiment: Colony morphology / small colony variant formation on TSA; assay type: cell-based, Staphylococcus aureus; settings: USA200 on TSA, 37 °C, up to 96 h (3a 4–16 μg/mL), 72 h (7c, rifampin)
Method: MRSA was streaked and then incubated on tryptic soy agar (TSA) containing 0, 2, 4, 8 or 16 μg/mL of inhibitor 3a or 4 μg/mL of 7C or 0.025 μg/mL of rifampin at 37 °C for 96 h. MK-4 (100 μg/mL) was supplemented in TSA containing 8 μg/mL of 3a for the rescue experiment.

[9] = system: MRSA USA300; experiment: MIC against MRSA USA300; assay type: cell-based, Staphylococcus aureus; settings: Staphylococcus aureus; TSB, 37 °C, 18–20 hours; read-out: MIC, Staphylococcus aureus isolate USA300
Method: as §1

[10] = system: MRSA USA500; experiment: MIC against MRSA USA500; assay type: cell-based, Staphylococcus aureus; settings: TSB, 37 °C, 18–20 hours; for MIC: Staphylococcus aureus, read-out: MIC, Staphylococcus aureus isolate USA500
Method: as §1

[11] = system: Pseudomonas aeruginosa; experiment: MIC against Pseudomonas aeruginosa; assay type: cell-based; settings: read-out: MIC, PA
[12] = system: Mycobacterium avium; experiment: MIC against Mycobacterium avium; assay type: cell-based; settings: 7H9 broth, 7–8 days
Method: as §1

| MIC ([3]; TSB, 37 °C, 18–20 hours) [µg/mL] | MIC ([1]; TSB, 37 °C, 18–20 hours) [µg/mL] | MIC [5] [µg/mL] | MIC [6] [µg/mL] | MIC ([7]; TSB, 37 °C, 18–20 hours) [µg/mL] | MIC [9] [µg/mL] | SMILES | further results |
| --- | --- | --- | --- | --- | --- | --- | --- |
| 8 (≈ 15.7 µM) | 16 (≈ 31.3 µM) | 16 (≈ 31.3 µM) | 4 (≈ 7.84 µM) | – | – | C=CCN(C)CCCCCCCCOc1ccc2cc(Br)c(OCc3ccccc3)cc2c1 [6a] | MIC [2]: 8 µg/mL (≈ 15.7 µM); MIC [4]: 64 µg/mL (≈ 125 µM) |
| 8 (≈ 16.9 µM) | 4 (≈ 8.47 µM) | – | 2 (≈ 4.23 µM) | 16 (≈ 33.9 µM) | 4 (≈ 8.47 µM) | Fc1ccc(CCNCCCCCCCCOc2ccc3cc(Br)ccc3c2)cc1 [5a] | MIC [2]: 4 µg/mL (≈ 8.47 µM) |
| > 128 | > 128 | > 128 | – | > 128 | – | Fc1ccc(CCNCCCCCCCCOc2ccc3cc(Br)c(OCc4ccccc4)cc3c2)cc1 [6c] | MIC [10]: > 128 µg/mL; MIC [4]: > 128 µg/mL |
| > 128 | 64 (≈ 108 µM) | 64 (≈ 108 µM) | 16 (≈ 26.9 µM) | – | > 128 | Clc1ccc(CCNCCCCCCCCOc2ccc3cc(Br)c(OCc4ccccc4)cc3c2)cc1 [6d] | – |
| 64 (≈ 131 µM) | 64 (≈ 131 µM) | – | 16 (≈ 32.7 µM) | > 128 | 32 (≈ 65.5 µM) | Clc1ccc(CCNCCCCCCCCOc2ccc3cc(Br)ccc3c2)cc1 [5b] | MIC [2]: 16 µg/mL (≈ 32.7 µM) |

The remaining lines, values behind:

| SMILES | MIC ([3]; TSB, 37 °C, 18–20 hours) [µg/mL] | MIC ([1]; TSB, 37 °C, 18–20 hours) [µg/mL] | MIC [5] [µg/mL] | MIC [6] [µg/mL] | MIC ([7]; TSB, 37 °C, 18–20 hours) [µg/mL] | MIC [9] [µg/mL] | further results |
| --- | --- | --- | --- | --- | --- | --- | --- |
| COc1ccc2ccc(OCCCCCCCCN3CCC(F)CC3)cc2c1 [3i] | – | – | – | – | – | – | MIC [1]: > 128 µg/mL |
| Brc1ccc2cc(OCCCCCCCCN3CCCCC3)ccc2c1 [5d] | – | – | – | – | – | – | MIC [7]: 8 µg/mL (≈ 19.1 µM); MIC [3]: 4 µg/mL (≈ 9.56 µM); MIC [1]: 16 µg/mL (≈ 38.2 µM) |
| CO[C@H]1/C=C/O[C@@]2(C)Oc3c(C)c(O)c4c(O)c(c(/C=N/N5CCN(C)CC5)c(O)c4c3C2=O)NC(=O)/C(C)=C\C=C\[C@H](C)[C@H](O)[C@@H](C)[C@@H](O)[C@@H](C)[C@H](OC(C)=O)[C@@H]1C [rifampin, reference compound] | – | – | – | – | – | – | induction of small colony variants (SCV) [8]: showed growth of SCV |
| COc1ccc2ccc(OCCCCCCCCN3C(=O)OC[C@@H]3Cc3ccccc3)cc2c1 [3g] | > 128 | > 128 | > 128 | – | – | – | MIC [11]: > 128 µg/mL |
| Fc1ccc(N2CCN(CCCOc3ccc4ccc(OCCCN5CCN(c6ccc(F)cc6)CC5)cc4c3)CC2)cc1 [7d, 2,7-bis(3-(4-(4-fluorophenyl)piperazin-1-yl)propoxy)naphthalene] | – | – | – | – | – | – | MIC [1]: > 128 µg/mL |
| COc1ccc2ccc(OCCCCCCCCN3CCc4ccccc4C3)cc2c1 [3d] | – | – | – | – | – | – | MIC, Staphylococcus aureus isolate USA200 [2]: >128 µg/mL; MIC, Staphylococcus aureus isolate USA400 ([3]; TSB, 37 °C, 18–20 hours): 64 µg/mL (≈ 153 µM); MIC, Staphylococcus aureus isolate USA500 [10]: 128 µg/mL (≈ 307 µM); MIC, Staphylococcus aureus isolate USA700 ([1]; TSB, 37 °C, 18–20 hours): 32 µg/mL (≈ 76.6 µM); MIC, MSSA [5]: 32 µg/mL (≈ 76.6 µM) |
| COc1ccc2ccc(OC/C=C/COCCCNCCc3ccc(F)cc3)cc2c1 [4c] | 8 (≈ 18.9 µM) | 16 (≈ 37.8 µM) | 16 (≈ 37.8 µM) | – | 8 (≈ 18.9 µM) | 8 (≈ 18.9 µM) | MIC [10]: 16 µg/mL (≈ 37.8 µM); MIC [4]: 16 µg/mL (≈ 37.8 µM); MIC [11]: > 64 µg/mL; MIC [12]: 8 µg/mL (≈ 18.9 µM) |
